We go through one compound from patent publication US20180289008A1, “METHODS FOR WILDFIRE CONTROL, INVASIVE PLANT CONTROL, AND RESIDUAL CONTROL OF INVASIVE PLANTS” (priority 2017, published 2018).

For data set [1] the following is noted: average; cited from earlier work.
For data set [2] the following is noted: pH 7; cited from earlier work.
Data set [3] relates to invasive winter annual grass (downy brome, feral rye, Japanese brome). In words: Invasive winter annual grass field efficacy studies, biomass as percent of non-treated (Sites 1 and 2 combined). Type of data set: in vivo, Bromus tectorum, Secale cereale, Bromus japonicus. The conditions noted are these: 1 YAT, across all five application timings, 73 and 102 g·ai·ha^−1; POST treatments with glyphosate. The procedure: In year 1, field experiments were conducted to compare the effectiveness of indaziflam and imazapic for long-term invasive winter annual grass control, and to evaluate the response of the native plant communities. The experiments were established at two sites on the Colorado Front Range dominated by invasive winter annual grasses. Site 1 (lat 40° 15′2″N, long 105° 12′56″W) was infested with equal amounts of downy brome and Japanese brome. Site 2 (lat 40° 43′23″N, long 104° 55′58″W) was infested with feral rye. These two sites were approximately 58 km apart. Site 1 was located on Rabbit Mountain Open Space (Boulder County). Site 2 was located on a Colorado Parks and Wildlife Area (Larimer County). Before herbicide application in July, visual estimates were made across the entire study area of percentage of living canopy cover for all species present at both sites.
Site 1 was characterized by ˜80-100% downy brome and Japanese brome canopy cover with a dense fine-fuel layer, e.g., thatch, (2 to 5 cm), and a scattered stand of co-occurring species (˜0-10% canopy cover, Table 4). […]
Biomass harvests and species richness evaluations were conducted in August (year 2 and year 3) to evaluate invasive winter annual grass control and response of co-occurring species. […] Additionally, at Site 1, species richness was calculated for each treatment as a simple estimate of biological diversity. […]

With `Cc1ccc2c(c1)[C@H](Nc1nc(N)nc(C(C)F)n1)[C@@H](C)C2` (mixture of isomers) [Indaziflam, N2-[(1R,2S)-2,3-dihydro-2,6-dimethyl-1H-inden-1-yl]-6-[(1RS)-1-fluoroethyl]-1,3,5-triazine-2,4-diamine], the water solubility in data set [1] is 3.6 µg/mL. Besides, the “Log Kow” value in data set [2] was 2.8. The “invasive winter annual grass control” value in data set [3] is more than 99%.
